Laboratory results reported in ChEMBL document CHEMBL4340547, “Synthesis and SAR development of quinoline analogs as novel P2X7 receptor antagonists” (Bioorg Med Chem Lett, 2019).

Columns and labels:
[1] = Intrinsic clearance in rat liver microsomes; type: ADME, Microsome; conditions: read-out: CLH
[2] = Intrinsic clearance in mouse liver microsomes; type: ADME, Microsome; conditions: read-out: CLH
[3] = Intrinsic clearance in human liver microsomes; type: ADME, Microsome; conditions: read-out: CLH
P2X purinoceptor 7 [4] = biological target: T1, P2X purinoceptor 7 (Homo sapiens, UniProt Q99572); assay: Antagonist activity at P2X7R in LPS-stimulated human THP1 cells assessed as inhibition of BzATP-induced IL-1beta release preincubated for 30 mins followed by BzATP stimulation and measured after 30 mins by sandwich ELISA
T1 sequence (Q99572 whole entry): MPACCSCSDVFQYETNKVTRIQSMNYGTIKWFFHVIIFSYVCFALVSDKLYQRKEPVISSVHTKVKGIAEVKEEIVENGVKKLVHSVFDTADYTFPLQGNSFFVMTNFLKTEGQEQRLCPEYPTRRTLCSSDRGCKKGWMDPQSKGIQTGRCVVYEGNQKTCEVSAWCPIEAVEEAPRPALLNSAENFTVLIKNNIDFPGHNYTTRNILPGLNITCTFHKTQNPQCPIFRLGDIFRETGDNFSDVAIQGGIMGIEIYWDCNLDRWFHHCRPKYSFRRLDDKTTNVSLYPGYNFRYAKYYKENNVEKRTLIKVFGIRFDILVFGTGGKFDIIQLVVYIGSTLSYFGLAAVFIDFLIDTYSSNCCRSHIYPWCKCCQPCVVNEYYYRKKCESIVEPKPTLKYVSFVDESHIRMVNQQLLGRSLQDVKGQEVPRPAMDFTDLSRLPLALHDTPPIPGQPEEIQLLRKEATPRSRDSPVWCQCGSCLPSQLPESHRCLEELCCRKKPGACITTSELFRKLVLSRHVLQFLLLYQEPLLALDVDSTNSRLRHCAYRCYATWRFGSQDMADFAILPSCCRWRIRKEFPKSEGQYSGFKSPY

P2X purinoceptor 7 [5] = biological target: T1, P2X purinoceptor 7; assay: Antagonist activity at human P2X7 receptor expressed in HEK293 cells assessed as inhibition of BzATP-induced YO PRO dye uptake preincubated for 20 mins followed by YO PRO dye and BzATP addition measured after 30 mins by fluorescence assay; type: cell-based
MDR [6] = assay: Efflux ratio of apparent permeability in MDCK cells expressing MDR; type: ADME, cell-based, Canis lupus familiaris; conditions: dog, MDCK-MDR1
MDR [7] = assay: Apparent permeability across apical to basolateral side in MDCK cells expressing MDR; type: ADME, cell-based, Canis lupus familiaris; conditions: dog, MDCK-MDR1
P2X purinoceptor 7 [8] = biological target: T2, P2X purinoceptor 7 (Rattus norvegicus, UniProt Q64663); assay: Antagonist activity at rat P2X7 receptor assessed as inhibition of BzATP-induced YO PRO dye uptake preincubated for 20 mins followed by YO PRO dye and BzATP addition measured after 30 mins by fluorescence assay
T2 sequence (Q64663 whole entry): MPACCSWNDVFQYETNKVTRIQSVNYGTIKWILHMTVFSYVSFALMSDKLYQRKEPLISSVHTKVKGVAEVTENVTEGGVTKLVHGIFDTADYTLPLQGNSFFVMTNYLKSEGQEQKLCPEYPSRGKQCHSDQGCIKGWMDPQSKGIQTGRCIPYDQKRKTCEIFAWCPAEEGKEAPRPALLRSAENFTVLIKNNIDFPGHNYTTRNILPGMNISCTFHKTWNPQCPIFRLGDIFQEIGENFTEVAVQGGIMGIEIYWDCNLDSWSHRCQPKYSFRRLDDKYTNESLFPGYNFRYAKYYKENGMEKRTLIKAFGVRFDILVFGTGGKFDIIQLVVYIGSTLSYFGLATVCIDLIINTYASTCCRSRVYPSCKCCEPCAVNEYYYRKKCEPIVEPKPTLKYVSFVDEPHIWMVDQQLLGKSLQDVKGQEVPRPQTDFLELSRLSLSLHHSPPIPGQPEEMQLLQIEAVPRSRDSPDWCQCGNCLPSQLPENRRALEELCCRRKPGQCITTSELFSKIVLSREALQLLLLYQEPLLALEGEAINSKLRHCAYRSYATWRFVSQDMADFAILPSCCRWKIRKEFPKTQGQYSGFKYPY

P2X purinoceptor 7 [9] = biological target: T3, P2X purinoceptor 7 (Mus musculus, UniProt Q9Z1M0); assay: Antagonist activity at mouse P2X7 receptor assessed as inhibition of BzATP-induced YO PRO dye uptake preincubated for 20 mins followed by YO PRO dye and BzATP addition measured after 30 mins by fluorescence assay
T3 sequence (Q9Z1M0 whole entry): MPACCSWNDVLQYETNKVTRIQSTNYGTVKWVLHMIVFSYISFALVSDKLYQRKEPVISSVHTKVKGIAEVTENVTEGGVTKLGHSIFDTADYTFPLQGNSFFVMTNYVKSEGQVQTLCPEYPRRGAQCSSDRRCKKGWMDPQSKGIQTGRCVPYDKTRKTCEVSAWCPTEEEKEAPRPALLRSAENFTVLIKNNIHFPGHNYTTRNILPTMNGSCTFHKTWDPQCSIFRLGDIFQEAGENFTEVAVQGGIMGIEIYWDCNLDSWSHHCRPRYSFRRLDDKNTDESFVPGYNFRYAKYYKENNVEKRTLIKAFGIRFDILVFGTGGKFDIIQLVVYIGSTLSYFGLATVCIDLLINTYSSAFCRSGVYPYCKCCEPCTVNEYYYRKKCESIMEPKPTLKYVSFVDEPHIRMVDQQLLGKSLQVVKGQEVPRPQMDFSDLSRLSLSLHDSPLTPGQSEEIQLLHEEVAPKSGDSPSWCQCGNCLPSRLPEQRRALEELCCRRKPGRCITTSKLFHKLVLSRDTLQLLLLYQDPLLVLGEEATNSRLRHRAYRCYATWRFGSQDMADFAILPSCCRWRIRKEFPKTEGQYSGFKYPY

| SMILES | microsomal CLint [1] [µL/min/mg] | microsomal CLint [2] [µL/min/mg] | microsomal CLint [3] [µL/min/mg] | IC50 (P2X purinoceptor 7 [4]) [nM] | IC50 (P2X purinoceptor 7 [5]) [nM] | efflux ratio (MDR [6]) | Papp A→B (MDR [7]) [×10⁻⁶ cm/s] | IC50 (P2X purinoceptor 7 [8]) [nM] | IC50 (P2X purinoceptor 7 [9]) [nM] |
| --- | --- | --- | --- | --- | --- | --- | --- | --- | --- |
| O=C(NCC1CCC(F)(F)CC1)c1c(Cl)ccc2nc(N3CCC(NCCO)C3)ccc12 (stereo unspecified) | 10 | 10 | 17 | 12 | 10 | 114 | 0.18 | – | – |
| CC1(C)OB(C2=CCCC2)OC1(C)C | – | – | – | 75 | 31 | – | – | – | – |
| O=C(NCC1CCC(F)(F)CC1)c1c(Cl)ccc2nc(C3=CCCC3)ccc12 | – | – | – | 90 | 36 | – | – | – | – |
| O=C(NCC1CCC(F)(F)CC1)c1c(Cl)ccc2nc(NCCO)ccc12 | – | – | – | 76 | 72 | – | – | – | – |
| CN(C)[C@H]1CCN(c2ccc3c(C(=O)NCC4CCC(F)(F)CC4)c(Cl)ccc3n2)C1 | 25 | 24 | 80 | 75 | 50 | 6.9 | 6 | – | – |
| C[C@@H]1CCC[C@@](O)(CNC(=O)c2c(Cl)ccc3nc(N4CCC(N(C)C)C4)ccc23)C1 (stereo partly specified) | 32 | 52 | 44 | 6 | 3.6 | 39 | 1.4 | 549 | 2000 |
| COCCNc1ccc2c(C(=O)NCC3CCC(F)(F)CC3)c(Cl)ccc2n1 | – | – | – | 180 | 89 | – | – | – | – |
| C[C@@H]1CCC[C@@](O)(CNC(=O)c2c(Cl)ccc3nc(N4CC[C@@H](C(C)(C)O)C4)ccc23)C1 | 10 | 68 | 75 | 7.4 | 14 | 34 | 1.5 | 130 | 3690 |
| C[C@H]1CCC[C@@](O)(CNC(=O)c2c(Cl)ccc3nc(N4CC[C@@H](F)C4)ccc23)C1 | 23 | 65 | 21 | 24.8 | 4.5 | 4.3 | 8.9 | 640 | 1400 |
| O=C(NCC1CCC(F)(F)CC1)c1c(Cl)ccc2nc(N3CC[C@@H](F)C3)ccc12 | 31 | 10 | 12 | 104 | 19 | 0.69 | 18.4 | – | – |
